According to patent US20240270762A1, “PENICILLIN-BINDING PROTEIN INHIBITORS” (priority 2021, published 2024):
In brackets after ≈: the same amount, converted by molar mass.

Legend:
[1] = target: T1, PBP1a from Acinetobacter baumannii (ATCC 19606) (Acinetobacter baumannii, UniProt A0ABX6CK30); test: Bocillin-FL fluorescence polarization competition binding, A. baumannii PBP1a; details: fluorescence polarization competition binding assay using Bocillin-FL; read-out: A. baumannii PBP1a Potency
T1 sequence (A0ABX6CK30 1-851): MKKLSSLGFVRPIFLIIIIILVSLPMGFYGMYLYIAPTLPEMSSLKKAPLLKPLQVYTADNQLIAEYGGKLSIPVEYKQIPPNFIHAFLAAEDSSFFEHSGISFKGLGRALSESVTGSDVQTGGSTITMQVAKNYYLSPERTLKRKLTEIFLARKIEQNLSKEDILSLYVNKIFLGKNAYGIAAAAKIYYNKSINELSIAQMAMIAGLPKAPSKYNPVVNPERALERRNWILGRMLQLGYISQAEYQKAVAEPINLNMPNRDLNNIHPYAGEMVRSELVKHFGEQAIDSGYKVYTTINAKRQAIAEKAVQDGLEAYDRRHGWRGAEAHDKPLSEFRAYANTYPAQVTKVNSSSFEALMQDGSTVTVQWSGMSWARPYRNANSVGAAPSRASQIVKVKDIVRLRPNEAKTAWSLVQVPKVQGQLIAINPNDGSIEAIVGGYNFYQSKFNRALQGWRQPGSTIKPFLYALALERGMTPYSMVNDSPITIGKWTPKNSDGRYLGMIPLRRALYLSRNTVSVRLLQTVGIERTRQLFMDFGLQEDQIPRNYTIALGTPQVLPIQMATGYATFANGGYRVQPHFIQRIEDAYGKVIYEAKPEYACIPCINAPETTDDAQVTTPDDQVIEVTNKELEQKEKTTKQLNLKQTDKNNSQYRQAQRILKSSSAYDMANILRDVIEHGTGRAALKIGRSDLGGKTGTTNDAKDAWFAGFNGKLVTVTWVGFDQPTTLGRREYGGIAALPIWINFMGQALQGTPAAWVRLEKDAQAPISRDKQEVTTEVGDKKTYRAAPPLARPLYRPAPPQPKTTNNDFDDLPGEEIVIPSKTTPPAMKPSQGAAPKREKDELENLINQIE
Summary of the method: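 Purified PBPs pre-incubated with inhibitor (E. coli PBP3 1.5 μM, 30 min; P. aeruginosa PBP3 0.75 μM, A. baumannii PBP1a 1 μM and PBP3 0.2 μM, 15 min), then Bocillin-FL 0.1 μM (0.05 μM for PBP1a) added; FP read up to 60 min. EC50 = concentration halving bound Bocillin-FL.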

[2] = system: N. gonorrhoeae ATCC 49226; test: Liquid broth MIC in Fastidious broth; details: Neisseria gonorrhoeae, ATCC49226, read-out: Minimum Inhibitory Concentration, ATCC 49226
[3] = system: N. gonorrhoeae MS11; test: Liquid broth MIC in Fastidious broth; details: Neisseria gonorrhoeae, MS11, read-out: Minimum Inhibitory Concentration, MS11
[4] = system: N. gonorrhoeae WHO G; test: Liquid broth MIC in Fastidious broth; details: Neisseria gonorrhoeae, read-out: Minimum Inhibitory Concentration, WHO G
[5] = system: N. gonorrhoeae WHO L; test: Liquid broth MIC in Fastidious broth; details: Neisseria gonorrhoeae, read-out: Minimum Inhibitory Concentration, WHO L
Method: Liquid broth-based assays were used for antibacterial testing of PBP inhibitors in Neisseria gonorrhoeae. Briefly, cryo-preserved bacterial cultures of clinical strains were streaked for isolation on Chocolate Agar (72 g/L (2×) GC Agar Base (BD #228950) and 2% (2×) Hemoglobin was autoclaved at 121° C. for 20 minutes to sterilize. Once cooled to ˜50° C. the 2×GC Agar Base and 2× Hemoglobin solutions are combined and 1% IsoVitaleX Enrichment (BD #211876) was added to the solution). Strains were incubated at 36° C. and 5% CO2 to allow growth of colonies, 24 hours before inoculum preparation. 2-fold serial dilutions of test compounds were conducted in a 96 well plate with a final volume of 75 μL per well at 2-fold the final desired concentration in Fastidious broth (Remel #R07664). For preparation of assay inoculum, a direct suspension was prepared by aseptically swabbing 10-15 colonies from agar plates into culture tubes containing 2 mL of fresh sterile saline. After the dilution plates were set up, direct suspensions were then diluted in a cuvette containing sterile saline and the optical density was measured at 600 nm. Inocula were diluted such that 75 μL of this culture in Fastidious broth results in a starting bacterial concentration of 5×10^5 CFU/mL when added to the dilution plates. The plates were incubated for ˜24 hours at 36° C. and 5% CO2.

[6] = system: N. gonorrhoeae WHO K; test: Liquid broth MIC in Fastidious broth; details: Neisseria gonorrhoeae, read-out: Minimum Inhibitory Concentration, WHO K
[7] = system: N. gonorrhoeae WHO X; test: Liquid broth MIC in Fastidious broth; details: Neisseria gonorrhoeae, read-out: Minimum Inhibitory Concentration, WHO X
[8] = system: N. gonorrhoeae WHO Q; test: Liquid broth MIC in Fastidious broth; details: Neisseria gonorrhoeae, read-out: Minimum Inhibitory Concentration, WHO Q

Structure (SMILES): O=C(NCCCN1CCN(C(=O)NC(C(=O)N[C@H]2Cc3ccc(F)c(C(=O)O)c3OB2O)c2cc(F)c(O)c(O)c2Cl)C(=O)C1=O)c1ccc(O)c(F)c1F (stereo partly drawn) [Example 306, (3R)-3-(2-(2-chloro-5-fluoro-3,4-dihydroxyphenyl)-2-(4-(3-(2,3-difluoro-4-hydroxybenzamido)propyl)-2,3-dioxopiperazine-1-carboxamido)acetamido)-7-fluoro-2-hydroxy-3,4-dihydro-2H-benzo[e][1,2]oxaborinine-8-carboxylic acid]
- IC50 [1]: > 250 µM
- MIC [2]: 16 to 32 µg/mL (≈ 20.1 to 40.2 µM)
- MIC [3]: 16 to 32 µg/mL (≈ 20.1 to 40.2 µM)
- MIC [4]: 16 to 32 µg/mL (≈ 20.1 to 40.2 µM)
- MIC [5]: > 64 µg/mL
- MIC [6]: > 64 µg/mL
- MIC [7]: > 64 µg/mL
- MIC [8]: > 64 µg/mL

Structure (SMILES): O=C(NCCS(=O)(=O)N1CCN(C(=O)NC(C(=O)N[C@H]2Cc3ccc(F)c(C(=O)O)c3OB2O)c2cc(F)c(O)c(O)c2Cl)C1=O)c1ccncc1 (stereo partly drawn) [Example 288, (3R)-3-(2-(2-chloro-5-fluoro-3,4-dihydroxyphenyl)-2-(3-((2-(isonicotinamido)ethyl)sulfonyl)-2-oxoimidazolidine-1-carboxamido)acetamido)-7-fluoro-2-hydroxy-3,4-dihydro-2H-benzo[e][1,2]oxaborinine-8-carboxylic acid]
- IC50 [1]: > 250 µM
- MIC [2]: 16 to 32 µg/mL (≈ 20.9 to 41.7 µM)
- MIC [3]: 4 to 8 µg/mL (≈ 5.22 to 10.4 µM)
- MIC [4]: 4 to 8 µg/mL (≈ 5.22 to 10.4 µM)
- MIC [5]: > 64 µg/mL
- MIC [6]: 16 to 32 µg/mL (≈ 20.9 to 41.7 µM)
- MIC [7]: > 64 µg/mL
- MIC [8]: 16 to 32 µg/mL (≈ 20.9 to 41.7 µM)

Structure (SMILES): O=C(NCCCN1CCN(C(=O)N[C@@H](C(=O)N[C@H]2Cc3ccc(F)c(C(=O)O)c3OB2O)c2cc(F)c(O)c(O)c2Cl)C(=O)C1=O)c1ccncc1O [Example 296, (R)-3-((R)-2-(2-chloro-5-fluoro-3,4-dihydroxyphenyl)-2-(4-(3-(3-hydroxyisonicotinamido)propyl)-2,3-dioxopiperazine-1-carboxamido)acetamido)-7-fluoro-2-hydroxy-3,4-dihydro-2H-benzo[e][1,2]oxaborinine-8-carboxylic acid]
- IC50 [1]: > 250 µM
- MIC [2]: 16 to 32 µg/mL (≈ 21 to 42.1 µM)
- MIC [3]: 16 to 32 µg/mL (≈ 21 to 42.1 µM)
- MIC [4]: 16 to 32 µg/mL (≈ 21 to 42.1 µM)
- MIC [5]: > 64 µg/mL
- MIC [6]: > 64 µg/mL
- MIC [7]: > 64 µg/mL
- MIC [8]: > 64 µg/mL

Structure (SMILES): O=C(NCCCN1CCN(C(=O)N[C@H](C(=O)N[C@H]2Cc3ccc(F)c(C(=O)O)c3OB2O)c2cc(F)c(O)c(O)c2Cl)C1=O)Nc1ccc(O)cc1 [Example 283, (R)-3-((S)-2-(2-chloro-5-fluoro-3,4-dihydroxyphenyl)-2-(3-(3-(3-(4-hydroxyphenyl)ureido)propyl)-2-oxoimidazolidine-1-carboxamido)acetamido)-7-fluoro-2-hydroxy-3,4-dihydro-2H-benzo[e][1,2]oxaborinine-8-carboxylic acid]
- IC50 [1]: > 250 µM
- MIC [2]: > 64 µg/mL
- MIC [3]: > 64 µg/mL
- MIC [4]: > 64 µg/mL
- MIC [5]: > 64 µg/mL
- MIC [6]: > 64 µg/mL
- MIC [7]: > 64 µg/mL
- MIC [8]: > 64 µg/mL

Structure (SMILES): O=C(NCCCS(=O)(=O)N1CCN(C(=O)NC(C(=O)N[C@H]2Cc3ccc(F)c(C(=O)O)c3OB2O)c2cc(F)c(O)c(O)c2Cl)C1=O)Nc1ccncc1 (stereo partly drawn) [Example 291, (3R)-3-(2-(2-chloro-5-fluoro-3,4-dihydroxyphenyl)-2-(2-oxo-3-((3-(3-(pyridin-4-yl)ureido)propyl)sulfonyl)imidazolidine-1-carboxamido)acetamido)-7-fluoro-2-hydroxy-3,4-dihydro-2H-benzo[e][1,2]oxaborinine-8-carboxylic acid]
- IC50 [1]: > 250 µM
- MIC [2]: 16 to 32 µg/mL (≈ 20.1 to 40.2 µM)
- MIC [3]: 16 to 32 µg/mL (≈ 20.1 to 40.2 µM)
- MIC [4]: 16 to 32 µg/mL (≈ 20.1 to 40.2 µM)
- MIC [5]: > 64 µg/mL
- MIC [6]: > 64 µg/mL
- MIC [7]: > 64 µg/mL
- MIC [8]: 16 to 32 µg/mL (≈ 20.1 to 40.2 µM)

Structure (SMILES): O=C(NCCCS(=O)(=O)N1CCN(C(=O)NC(C(=O)N[C@H]2Cc3ccc(F)c(C(=O)O)c3OB2O)c2cc(F)c(O)c(O)c2Cl)C1=O)Nc1cccnc1 (stereo partly drawn) [Example 278, (3R)-3-(2-(2-chloro-5-fluoro-3,4-dihydroxyphenyl)-2-(2-oxo-3-((3-(3-(pyridin-3-yl)ureido)propyl)sulfonyl)imidazolidine-1-carboxamido)acetamido)-7-fluoro-2-hydroxy-3,4-dihydro-2H-benzo[e][1,2]oxaborinine-8-carboxylic acid]
- IC50 [1]: > 250 µM
- MIC [2]: 16 to 32 µg/mL (≈ 20.1 to 40.2 µM)
- MIC [3]: 16 to 32 µg/mL (≈ 20.1 to 40.2 µM)
- MIC [4]: 16 to 32 µg/mL (≈ 20.1 to 40.2 µM)
- MIC [5]: > 64 µg/mL
- MIC [6]: > 64 µg/mL
- MIC [7]: > 64 µg/mL
- MIC [8]: 16 to 32 µg/mL (≈ 20.1 to 40.2 µM)

Structure (SMILES): Cc1cc(C(=O)NCCCN2CCN(C(=O)NC(C(=O)N[C@H]3Cc4ccc(F)c(C(=O)O)c4OB3O)c3cc(F)c(O)c(O)c3Cl)C(=O)C2=O)c(F)cn1 (stereo partly drawn) [Example 301, (3R)-3-(2-(2-chloro-5-fluoro-3,4-dihydroxyphenyl)-2-(4-(3-(5-fluoro-2-methylisonicotinamido)propyl)-2,3-dioxopiperazine-1-carboxamido)acetamido)-7-fluoro-2-hydroxy-3,4-dihydro-2H-benzo[e][1,2]oxaborinine-8-carboxylic acid]
- IC50 [1]: > 250 µM
- MIC [2]: 16 to 32 µg/mL (≈ 20.6 to 41.2 µM)
- MIC [3]: 16 to 32 µg/mL (≈ 20.6 to 41.2 µM)
- MIC [4]: 16 to 32 µg/mL (≈ 20.6 to 41.2 µM)
- MIC [5]: > 64 µg/mL
- MIC [6]: > 64 µg/mL
- MIC [7]: > 64 µg/mL
- MIC [8]: > 64 µg/mL

Structure (SMILES): O=C(NCCCN1CCN(C(=O)NC(C(=O)N[C@H]2Cc3ccc(F)c(C(=O)O)c3OB2O)c2cc(F)c(O)c(O)c2Cl)C(=O)C1=O)c1ccncc1Cl (stereo partly drawn) [Example 295, (3R)-3-(2-(2-chloro-5-fluoro-3,4-dihydroxyphenyl)-2-(4-(3-(3-chloroisonicotinamido)propyl)-2,3-dioxopiperazine-1-carboxamido)acetamido)-7-fluoro-2-hydroxy-3,4-dihydro-2H-benzo[e][1,2]oxaborinine-8-carboxylic acid]
- IC50 [1]: > 250 µM
- MIC [2]: 16 to 32 µg/mL (≈ 20.5 to 41.1 µM)
- MIC [3]: 16 to 32 µg/mL (≈ 20.5 to 41.1 µM)
- MIC [4]: 16 to 32 µg/mL (≈ 20.5 to 41.1 µM)
- MIC [5]: > 64 µg/mL
- MIC [6]: > 64 µg/mL
- MIC [7]: > 64 µg/mL
- MIC [8]: > 64 µg/mL

Structure (SMILES): O=C(NCCCN1CCN(C(=O)N[C@@H](C(=O)N[C@H]2Cc3ccc(F)c(C(=O)O)c3OB2O)c2cc(F)c(O)c(O)c2Cl)C(=O)C1=O)c1cccc(O)c1Cl [Example 303, (R)-3-((R)-2-(4-(3-(2-chloro-3-hydroxybenzamido)propyl)-2,3-dioxopiperazine-1-carboxamido)-2-(2-chloro-5-fluoro-3,4-dihydroxyphenyl)acetamido)-7-fluoro-2-hydroxy-3,4-dihydro-2H-benzo[e][1,2]oxaborinine-8-carboxylic acid]
- IC50 [1]: > 250 µM
- MIC [2]: 4 to 8 µg/mL (≈ 5.04 to 10.1 µM)
- MIC [3]: 4 to 8 µg/mL (≈ 5.04 to 10.1 µM)
- MIC [4]: 4 to 8 µg/mL (≈ 5.04 to 10.1 µM)
- MIC [5]: > 64 µg/mL
- MIC [6]: > 64 µg/mL
- MIC [7]: > 64 µg/mL
- MIC [8]: > 64 µg/mL

Structure (SMILES): O=C(NCCN1CCN(C(=O)N[C@@H](C(=O)N[C@H]2Cc3ccc(F)c(C(=O)O)c3OB2O)c2cc(F)c(O)c(O)c2Cl)C1=O)Nc1ccc(O)cc1 [Example 279, (R)-3-((R)-2-(2-chloro-5-fluoro-3,4-dihydroxyphenyl)-2-(3-(2-(3-(4-hydroxyphenyl)ureido)ethyl)-2-oxoimidazolidine-1-carboxamido)acetamido)-7-fluoro-2-hydroxy-3,4-dihydro-2H-benzo[e][1,2]oxaborinine-8-carboxylic acid]
- IC50 [1]: > 250 µM
- MIC [2]: 4 to 8 µg/mL (≈ 5.46 to 10.9 µM)
- MIC [3]: 4 to 8 µg/mL (≈ 5.46 to 10.9 µM)
- MIC [4]: 4 to 8 µg/mL (≈ 5.46 to 10.9 µM)
- MIC [5]: 16 to 32 µg/mL (≈ 21.8 to 43.7 µM)
- MIC [6]: 16 to 32 µg/mL (≈ 21.8 to 43.7 µM)
- MIC [7]: > 64 µg/mL
- MIC [8]: 16 to 32 µg/mL (≈ 21.8 to 43.7 µM)
